# Assay results from patent US20260200926A1, “TREM2 MODULATORS” (Muna Therapeutics ApS, priority 2022, published 2026).
# pEC50: −log10 of the molar value. Counter-ions that a name gives are not always drawn. Like-named read-outs stand apart in the source and are kept apart here.
# Target: T1, Human TREM2 (Homo sapiens, UniProt Q9NZC2)
# T1 construct: expressed in transfected cells
# Experiment: Human TREM2 activity: cellular phosphorylation of Syk (AlphaLISA SureFire Ultra p-SYK) in HEK293/DAP12+TREM2 stable cell line
# Format: cell-based
# Details: for Emax: maximal response relative to reference agonist example 1B (remaining examples)
# Method in brief: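 The read-out was p-Syk (Tyr525/526), measured by AlphaLISA in lysates of a stable HEK293/DAP12+TREM2 clone. Cells (10,000/well, plated the day before) received compound for 30 min at 37 °C. Dosing used 8 points in quadruplicate, top 100 μM with 1:6 dilution, 0.5% final DMSO.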
# [1] = phospho-Syk AlphaLISA signal, HEK293/DAP12+TREM2 cells, concentration giving 50% of maximal response, read-out: EC50
# T1 sequence (Q9NZC2 19-230): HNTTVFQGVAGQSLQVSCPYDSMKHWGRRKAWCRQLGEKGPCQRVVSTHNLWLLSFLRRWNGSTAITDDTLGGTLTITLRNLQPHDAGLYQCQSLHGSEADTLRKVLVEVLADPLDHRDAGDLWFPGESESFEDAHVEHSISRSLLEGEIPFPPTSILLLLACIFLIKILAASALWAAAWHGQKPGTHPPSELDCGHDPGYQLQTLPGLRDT
# T1 sequence (O43914 22-113 partner): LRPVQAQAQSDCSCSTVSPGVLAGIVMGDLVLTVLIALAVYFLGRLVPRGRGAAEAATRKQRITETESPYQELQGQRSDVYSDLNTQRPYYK
SMILES,pEC50,Emax,"Emax (HEK293, read-out: Emax)",pEC50 [1]
"Cc1nc2c(-c3ccc(Cl)cc3F)nc(N3CCOC(c4ccn(C)n4)C3)nc2c(=O)n1C (stereo not drawn) [Example 36, 8-(4-chloro-2-fluorophenyl)-2,3-dimethyl-6-(2-(1-methyl-1H-pyrazol-3-yl)morpholino)pyrimido[5,4-d]pyrimidin-4 (3H)-one]",6.00 to 7.00,++ (75-110%),,
"Cc1nc2c(-c3ccc(Cl)cc3F)nc(N3CCOC(c4cn[nH]c4)C3)nc2c(=O)n1C (stereo not drawn) [Example 39, 6-(2-(1H-pyrazol-4-yl)morpholino)-8-(4-chloro-2-fluorophenyl)-2,3-dimethylpyrimido[5,4-d]pyrimidin-4 (3H)-one]",,,< 75%,7.00 to 8.00
"Cc1nc2c(-c3ccc(Cl)cc3F)nc(N3CCOC(c4cnn(C5COC5)c4)C3)nc2c(=O)n1C (stereo not drawn) [Example 40, 8-(4-chloro-2-fluorophenyl)-2,3-dimethyl-6-(2-(1-(oxetan-3-yl)-1H-pyrazol-4-yl)morpholino)pyrimido[5,4-d]pyrimidin-4 (3H)-one]",,,75 to 110%,7.00 to 8.00
"Cc1nc2c(-c3ccc(Cl)cc3F)nc(N3CCOC(c4cnn(C5CNC5)c4)C3)nc2c(=O)n1C (stereo not drawn) [Example 41, 6-(2-(1-(azetidin-3-yl)-1H-pyrazol-4-yl)morpholino)-8-(4-chloro-2-fluorophenyl)-2,3-dimethylpyrimido[5,4-d]pyrimidin-4 (3H)-one hydrochloride salt]",,,75 to 110%,6.00 to 7.00
"Cc1nc2c(-c3ccc(Cl)cc3F)nc(N3CCOC(c4cnn(C5CN(C)C5)c4)C3)nc2c(=O)n1C (stereo not drawn) [Example 42, 8-(4-chloro-2-fluorophenyl)-2,3-dimethyl-6-(2-(1-(1-methylazetidin-3-yl)-1H-pyrazol-4-yl)morpholino)pyrimido[5,4-d]pyrimidin-4 (3H)-one]",,,< 75%,7.00 to 8.00
"Cc1nnc(C2CN(c3nc(-c4ccc(Cl)cc4F)c4nc(C)n(C)c(=O)c4n3)CCO2)o1 (stereo not drawn) [Example 43, 8-(4-chloro-2-fluorophenyl)-2,3-dimethyl-6-(2-(5-methyl-1,3,4-oxadiazol-2-yl)morpholino)pyrimido[5,4-d]pyrimidin-4(3H)-one]",,,< 75%,7.00 to 8.00
"Cc1nc2c(-c3ccc(Cl)cc3F)nc(N3CCOC(c4ccnn4C)C3)nc2c(=O)n1C (stereo not drawn) [Example 44, 8-(4-chloro-2-fluorophenyl)-2,3-dimethyl-6-(2-(1-methyl-1H-pyrazol-5-yl)morpholino)pyrimido[5,4-d]pyrimidin-4(3H)-one]",,,75 to 110%,6.00 to 7.00
"Cc1csc(C2CN(c3nc(-c4ccc(Cl)cc4F)c4nc(C)n(C)c(=O)c4n3)CCO2)n1 (stereo not drawn) [Example 45, 8-(4-chloro-2-fluorophenyl)-2,3-dimethyl-6-(2-(4-methylthiazol-2-yl)morpholino)pyrimido[5,4-d]pyrimidin-4(3H)-one]",,,< 75%,7.00 to 8.00
"Cc1n[nH]c(C2CN(c3nc(-c4ccc(Cl)cc4F)c4nc(C)n(C)c(=O)c4n3)CCO2)n1 (stereo not drawn) [Example 46, 8-(4-chloro-2-fluorophenyl)-2,3-dimethyl-6-(2-(3-methyl-1H-1,2,4-triazol-5-yl)morpholino)pyrimido[5,4-d]pyrimidin-4(3H)-one]",,,< 75%,6.00 to 7.00
"Cc1nc2c(-c3ccc(Cl)cc3F)nc(N3CCOC(c4cc[nH]n4)C3)nc2c(=O)n1C (stereo not drawn) [Example 47, 6-(2-(1H-pyrazol-3-yl)morpholino)-8-(4-chloro-2-fluorophenyl)-2,3-dimethylpyrimido[5,4-d]pyrimidin-4(3H)-one]",,,< 75%,6.00 to 7.00
"Cc1nc2c(-c3ccc(Cl)cc3F)nc(N3CCOC(c4nccs4)C3)nc2c(=O)n1C (stereo not drawn) [Example 48, 8-(4-chloro-2-fluorophenyl)-2,3-dimethyl-6-(2-(thiazol-2-yl)morpholino)pyrimido[5,4-d]pyrimidin-4(3H)-one]",,,< 75%,7.00 to 8.00
"CNC(=O)C1CN(c2nc(-c3ccc(Cl)cc3F)c3nc(C)n(C)c(=O)c3n2)CCO1 (stereo not drawn) [Example 49, 4-(4-(4-chloro-2-fluorophenyl)-6,7-dimethyl-8-oxo-7,8-dihydropyrimido[5,4-d]pyrimidin-2-yl)-N-methylmorpholine-2-carboxamide]",,,< 75%,< 6.00
"Cc1nc(C2CN(c3nc(-c4ccc(Cl)cc4F)c4nc(C)n(C)c(=O)c4n3)CCO2)no1 (stereo not drawn) [Example 50, 8-(4-chloro-2-fluorophenyl)-2,3-dimethyl-6-(2-(5-methyl-1,2,4-oxadiazol-3-yl)morpholino)pyrimido[5,4-d]pyrimidin-4(3H)-one]",,,< 75%,7.00 to 8.00
"Cc1nc2c(-c3ccc(Cl)cc3F)nc(N3CCOC(C(=O)N(C)C)C3)nc2c(=O)n1C (stereo not drawn) [Example 51, 4-(4-(4-chloro-2-fluorophenyl)-6,7-dimethyl-8-oxo-7,8-dihydropyrimido[5,4-d]pyrimidin-2-yl)-N,N-dimethylmorpholine-2-carboxamide]",,,75 to 110%,< 6.00
"COCC1CN(c2nc(-c3ccc(Cl)cc3F)c3nc(C)n(C)c(=O)c3n2)CCO1 (stereo not drawn) [Example 52, 8-(4-chloro-2-fluorophenyl)-6-(2-(methoxymethyl)morpholino)-2,3-dimethylpyrimido[5,4-d]pyrimidin-4(3H)-one]",,,75 to 110%,6.00 to 7.00
"Cc1nc2c(-c3ccc(Cl)cc3F)nc(N3CCOC(CN(C)C)C3)nc2c(=O)n1C (stereo not drawn) [Example 53, 8-(4-chloro-2-fluorophenyl)-6-(2-((dimethylamino)methyl)morpholino)-2,3-dimethylpyrimido[5,4-d]pyrimidin-4(3H)-one]",,,75 to 110%,6.00 to 7.00
"Cc1nc2c(-c3ccc(Cl)cc3F)nc(N3CCOC4(CCCC4)C3)nc2c(=O)n1C [Example 54, 8-(4-chloro-2-fluorophenyl)-2,3-dimethyl-6-(6-oxa-9-azaspiro[4.5]decan-9-yl)pyrimido[5,4-d]pyrimidin-4(3H)-one]",,,< 75%,< 6.00
"Cc1nc2c(-c3ccc(Cl)cc3F)nc(N3CCOC(C)(c4cnn(C)c4)C3)nc2c(=O)n1C (stereo not drawn) [Example 55, 8-(4-chloro-2-fluorophenyl)-2,3-dimethyl-6-(2-methyl-2-(1-methyl-1H-pyrazol-4-yl)morpholino)pyrimido[5,4-d]pyrimidin-4(3H)-one]",,,< 75%,< 6.00
"Cc1nc2c(-c3ccc(Cl)cc3F)nc(N3CCOC4(CCN(C)CC4)C3)nc2c(=O)n1C [Example 56, 8-(4-chloro-2-fluorophenyl)-2,3-dimethyl-6-(9-methyl-1-oxa-4,9-diazaspiro[5.5]undecan-4-yl)pyrimido[5,4-d]pyrimidin-4(3H)-one]",,,< 75%,< 6.00
"Cc1nc2c(-c3ccc(Cl)cc3F)nc(N3CCOC(C)(C)C3)nc2c(=O)n1C [Example 57, 8-(4-chloro-2-fluorophenyl)-6-(2,2-dimethylmorpholino)-2,3-dimethylpyrimido[5,4-d]pyrimidin-4(3H)-one]",,,< 75%,< 6.00
"Cc1nc2c(-c3ccc(Cl)cc3F)nc(N3CCOC(c4ncon4)C3)nc2c(=O)n1C (stereo not drawn) [Example 58, 6-(2-(1,2,4-oxadiazol-3-yl)morpholino)-8-(4-chloro-2-fluorophenyl)-2,3-dimethylpyrimido[5,4-d]pyrimidin-4(3H)-one]",,,75 to 110%,6.00 to 7.00
